The assay deals with Escherichia coli ATCC 25922. The assay can be described thus: Minimum inhibitory concentration (MIC), CLSI broth micro-dilution, E. coli. The note with it: Escherichia coli. Format: cell-based. A digest of the protocol: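 Antibacterial potency is measured as MIC by the CLSI broth dilution method. Bacteria at OD600 0.0005 in Tween-80-supplemented cation-adjusted Mueller Hinton broth face ten twofold compound dilutions for 22 h at 35° C.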

The mark [1] stands for this setting: ATCC25922, 22 h, Table 7, cation adjusted Mueller Hinton Broth + 0.002% Tween-80, 35° C.

Take `Cc1nc(-c2ccc(C(C)(C)C)cc2)nc(C)c1C(=O)N[C@@H](CCN)C(=O)N(C)[C@@H]1C(=O)N[C@@H](C)C(=O)N[C@H](C(=O)NCC#N)Cc2ccc(OC3CNC3)c(c2)-c2cc1ccc2O` (racemic) [Compound 605, rac-(8S,11S,14S)-3-(azetidin-3-yloxy)-N-(cyanomethyl)-18-hydroxy-11-methyl-14-[methyl-[rac-(2S)-4-amino-2-[[2-(4-tert-butylphenyl)-4,6-dimethyl-pyrimidine-5-carbonyl]amino]butanoyl]amino]-10,13-dioxo-9,12-diazatricyclo[13.3.1.12,6]icosa-1(18),2(20),3,5,15(19),16-hexaene-8-carboxamide]: the MIC under setting [1] worked out at 0.75 µM. The same measure, in the same setting: for `Cc1nc(-c2ccc(C(C)(C)C)cc2)nc(C)c1C(=O)N[C@@H](CCN)C(=O)N(C)[C@@H]1C(=O)N[C@@H](C)C(=O)N[C@H](C(=O)NCC#N)Cc2ccc(OC(C)CN)c(c2)-c2cc1ccc2O` (mixture of isomers) [Compound 606, rac-(8S,11S,14S)-3-(2-amino-1-methyl-ethoxy)-N-(cyanomethyl)-18-hydroxy-11-methyl-14-[methyl-[rac-(2S)-4-amino-2-[[2-(4-tert-butylphenyl)-4,6-dimethyl-pyrimidine-5-carbonyl]amino]butanoyl]amino]-10,13-dioxo-9,12-diazatricyclo[13.3.1.12,6]icosa-1(18),2(20),3,5,15(19),16-hexaene-8-carboxamide] the value was 0.5 µM; for `Cc1nc(-c2ccc(C(C)(C)C)cc2)nc(C)c1C(=O)N[C@@H](CCN)C(=O)N(C)[C@@H]1C(=O)N[C@@H](C)C(=O)N[C@H](C(=O)NCC#N)Cc2ccc(O)c(c2)-c2cc1ccc2OC(C)CN` (mixture of isomers) [Compound 607, rac-(8S,11S,14S)-18-(2-amino-1-methyl-ethoxy)-N-(cyanomethyl)-3-hydroxy-11-methyl-14-[methyl-[rac-(2S)-4-amino-2-[[2-(4-tert-butylphenyl)-4,6-dimethyl-pyrimidine-5-carbonyl]amino]butanoyl]amino]-10,13-dioxo-9,12-diazatricyclo[13.3.1.12,6]icosa-1(18),2(20),3,5,15(19),16-hexaene-8-carboxamide], 0.5 µM; for `Cc1nc(-c2ccc(C(C)(C)C)cc2)nc(C)c1C(=O)N[C@@H](CCN)C(=O)N(C)[C@@H]1C(=O)N[C@@H](C)C(=O)N[C@H](C(=O)NCC#N)Cc2ccc(O)c(c2)-c2cc1ccc2OC1CCNCC1` (racemic) [Compound 608, rac-(8S,11S,14S)-N-(cyanomethyl)-3-hydroxy-11-methyl-14-[methyl-[rac-(2S)-4-amino-2-[[2-(4-tert-butylphenyl)-4,6-dimethyl-pyrimidine-5-carbonyl]amino]butanoyl]amino]-10,13-dioxo-18-(4-piperidyloxy)-9,12-diazatricyclo[13.3.1.12,6]icosa-1(18),2(20),3,5,15(19),16-hexaene-8-carboxamide], 0.38 µM.

For the compound `Cc1nc(-c2ccc(C(C)(C)C)cc2)nc(C)c1C(=O)N[C@@H](CCN)C(=O)N(C)[C@@H]1C(=O)N[C@@H](C)C(=O)N[C@H](C(=O)NCC#N)Cc2ccc(OC3CCNCC3)c(c2)-c2cc1ccc2O` (racemic) [Compound 609, rac-(8S,11S,14S)-N-(cyanomethyl)-18-hydroxy-11-methyl-14-[methyl-[rac-(2S)-4-amino-2-[[2-(4-tert-butylphenyl)-4,6-dimethyl-pyrimidine-5-carbonyl]amino]butanoyl]amino]-10,13-dioxo-3-(4-piperidyloxy)-9,12-diazatricyclo[13.3.1.12,6]icosa-1(18),2(20),3,5,15(19),16-hexaene-8-carboxamide], under setting [1], the minimal inhibitory concentration (MIC) came out at 0.5 µM. The same measure, in the same setting: then `Cc1nc(-c2ccc(C(C)(C)C)cc2)nc(C)c1C(=O)N[C@@H](CCN)C(=O)N(C)[C@@H]1C(=O)N[C@@H](C)C(=O)N[C@H](C(=O)NCC#N)Cc2ccc(OCC(CN)CN)c(c2)-c2cc1ccc2O` (racemic) [Compound 610, rac-(8S,11S,14S)-3-[3-amino-2-(aminomethyl)propoxy]-N-(cyanomethyl)-18-hydroxy-11-methyl-14-[methyl-[rac-(2S)-4-amino-2-[[2-(4-tert-butylphenyl)-4,6-dimethyl-pyrimidine-5-carbonyl]amino]butanoyl]amino]-10,13-dioxo-9,12-diazatricyclo[13.3.1.12,6]icosa-1(18),2(20),3,5,15(19),16-hexaene-8-carboxamide], with 0.19 µM; and `Cc1nc(-c2ccc(C(C)(C)C)cc2)nc(C)c1C(=O)N[C@@H](CCN)C(=O)N(C)[C@@H]1C(=O)N[C@@H](C)C(=O)N[C@H](C(=O)NCC#N)Cc2ccc(O)c(c2)-c2cc1ccc2OCC(CN)CN` (racemic) [Compound 611, rac-(8S,11S,14S)-18-[3-amino-2-(aminomethyl)propoxy]-N-(cyanomethyl)-3-hydroxy-11-methyl-14-[methyl-[rac-(2S)-4-amino-2-[[2-(4-tert-butylphenyl)-4,6-dimethyl-pyrimidine-5-carbonyl]amino]butanoyl]amino]-10,13-dioxo-9,12-diazatricyclo[13.3.1.12,6]icosa-1(18),2(20),3,5,15(19),16-hexaene-8-carboxamide], with 0.19 µM; and `Cc1nc(-c2ccc(C(C)(C)C)cc2)nc(C)c1C(=O)N[C@@H](CCN)C(=O)N(C)[C@@H]1C(=O)N[C@@H](C)C(=O)N[C@H](C(=O)NCC#N)Cc2ccc(OC[C@H](N)CO)c(c2)-c2cc1ccc2O` (racemic) [Compound 612, rac-(8S,11S,14S)-N-(cyanomethyl)-18-hydroxy-11-methyl-14-[methyl-[rac-(2S)-4-amino-2-[[2-(4-tert-butylphenyl)-4,6-dimethyl-pyrimidine-5-carbonyl]amino]butanoyl]amino]-10,13-dioxo-3-[rac-(2R)-2-amino-3-hydroxy-propoxy]-9,12-diazatricyclo[13.3.1.12,6]icosa-1(18),2(20),3,5,15(19),16-hexaene-8-carboxamide], with 0.25 µM. Still for that read-out and setting: then `Cc1nc(-c2ccc(C(C)(C)C)cc2)nc(C)c1C(=O)N[C@@H](CCN)C(=O)N(C)[C@@H]1C(=O)N[C@@H](C)C(=O)N[C@H](C(=O)NCC#N)Cc2ccc(OC[C@@H](N)CO)c(c2)-c2cc1ccc2O` (racemic) [Compound 613, rac-(8S,11S,14S)-N-(cyanomethyl)-18-hydroxy-11-methyl-14-[methyl-[rac-(2S)-4-amino-2-[[2-(4-tert-butylphenyl)-4,6-dimethyl-pyrimidine-5-carbonyl]amino]butanoyl]amino]-10,13-dioxo-3-[rac-(2S)-2-amino-3-hydroxy-propoxy]-9,12-diazatricyclo[13.3.1.12,6]icosa-1(18),2(20),3,5,15(19),16-hexaene-8-carboxamide], with 0.75 µM. Take `Cc1nc(-c2ccc(C(C)(C)C)cc2)nc(C)c1C(=O)N[C@@H](CCN)C(=O)N(C)[C@@H]1C(=O)N[C@@H](C)C(=O)N[C@H](C(=O)NCC#N)Cc2ccc(OC[C@H](O)CN)c(c2)-c2cc1ccc2O` (racemic) [Compound 614, rac-(8S,11S,14S)-N-(cyanomethyl)-18-hydroxy-11-methyl-14-[methyl-[rac-(2S)-4-amino-2-[[2-(4-tert-butylphenyl)-4,6-dimethyl-pyrimidine-5-carbonyl]amino]butanoyl]amino]-10,13-dioxo-3-[rac-(2R)-3-amino-2-hydroxy-propoxy]-9,12-diazatricyclo[13.3.1.12,6]icosa-1(18),2(20),3,5,15(19),16-hexaene-8-carboxamide]: the MIC (ATCC25922, Table 7, cation adjusted Mueller Hinton Broth + 0.002% Tween-80, 35° C., 22 hours) stood at 0.19 µM. Take `Cc1nc(-c2ccc(OC3CCCCC3)cc2)nc(C)c1C(=O)N[C@@H](CCNS(N)(=O)=O)C(=O)N(C)[C@@H]1C(=O)N[C@@H](C)C(=O)N[C@H](C(=O)NCC#N)Cc2ccc(O)c(c2)-c2cc1ccc2OCCN` (racemic) [Compound 615, rac-(8S,11S,14S)-18-(2-aminoethoxy)-N-(cyanomethyl)-3-hydroxy-11-methyl-14-[methyl-[rac-(2S)-2-[[2-[4-(cyclohexoxy)phenyl]-4,6-dimethyl-pyrimidine-5-carbonyl]amino]-4-(sulfamoylamino)butanoyl]amino]-10,13-dioxo-9,12-diazatricyclo[13.3.1.12,6]icosa-1(18),2(20),3,5,15(19),16-hexaene-8-carboxamide]: the MIC under setting [1] came out at 1 µM.

Regarding `Cc1nc(-c2ccc(OC3CCCCC3)cc2)nc(C)c1C(=O)N[C@@H](CNS(N)(=O)=O)C(=O)N(C)[C@@H]1C(=O)N[C@@H](C)C(=O)N[C@H](C(=O)NCC#N)Cc2ccc(OCCN)c(c2)-c2cc1ccc2O` (racemic) [Compound 616, rac-(8S,11S,14S)-3-(2-aminoethoxy)-N-(cyanomethyl)-18-hydroxy-11-methyl-14-[methyl-[rac-(2S)-2-[[2-[4-(cyclohexoxy)phenyl]-4,6-dimethyl-pyrimidine-5-carbonyl]amino]-3-(sulfamoylamino)propanoyl]amino]-10,13-dioxo-9,12-diazatricyclo[13.3.1.12,6]icosa-1(18),2(20),3,5,15(19),16-hexaene-8-carboxamide], under setting [1], the MIC was 0.5 µM. On to `Cc1nc(-c2ccc(C(C)(C)C)cc2)nc(C)c1C(=O)N[C@@H](CCN)C(=O)N(C)[C@@H]1C(=O)N[C@@H](C)C(=O)N[C@H](C(=O)NCC#N)Cc2ccc(O)c(c2)-c2cc1ccc2OC[C@H](O)CN` (racemic) [Compound 617, rac-(8S,11S,14S)-N-(cyanomethyl)-3-hydroxy-11-methyl-14-[methyl-[rac-(2S)-4-amino-2-[[2-(4-tert-butylphenyl)-4,6-dimethyl-pyrimidine-5-carbonyl]amino]butanoyl]amino]-10,13-dioxo-18-[rac-(2R)-3-amino-2-hydroxy-propoxy]-9,12-diazatricyclo[13.3.1.12,6]icosa-1(18),2(20),3,5,15(19),16-hexaene-8-carboxamide], for which, under setting [1], the MIC came to 0.19 µM.
